Reference: article PMC12091851, “Replacing a Cereblon Ligand by a DDB1 and CUL4 Associated Factor 11 (DCAF11) Recruiter Converts a Selective Histone Deacetylase 6 PROTAC into a Pan‐Degrader” (Chemmedchem, 2025)

Target: T1, HDAC6 (Homo sapiens, UniProt Q9UBN7)
T1 sequence (Q9UBN7 1-1215): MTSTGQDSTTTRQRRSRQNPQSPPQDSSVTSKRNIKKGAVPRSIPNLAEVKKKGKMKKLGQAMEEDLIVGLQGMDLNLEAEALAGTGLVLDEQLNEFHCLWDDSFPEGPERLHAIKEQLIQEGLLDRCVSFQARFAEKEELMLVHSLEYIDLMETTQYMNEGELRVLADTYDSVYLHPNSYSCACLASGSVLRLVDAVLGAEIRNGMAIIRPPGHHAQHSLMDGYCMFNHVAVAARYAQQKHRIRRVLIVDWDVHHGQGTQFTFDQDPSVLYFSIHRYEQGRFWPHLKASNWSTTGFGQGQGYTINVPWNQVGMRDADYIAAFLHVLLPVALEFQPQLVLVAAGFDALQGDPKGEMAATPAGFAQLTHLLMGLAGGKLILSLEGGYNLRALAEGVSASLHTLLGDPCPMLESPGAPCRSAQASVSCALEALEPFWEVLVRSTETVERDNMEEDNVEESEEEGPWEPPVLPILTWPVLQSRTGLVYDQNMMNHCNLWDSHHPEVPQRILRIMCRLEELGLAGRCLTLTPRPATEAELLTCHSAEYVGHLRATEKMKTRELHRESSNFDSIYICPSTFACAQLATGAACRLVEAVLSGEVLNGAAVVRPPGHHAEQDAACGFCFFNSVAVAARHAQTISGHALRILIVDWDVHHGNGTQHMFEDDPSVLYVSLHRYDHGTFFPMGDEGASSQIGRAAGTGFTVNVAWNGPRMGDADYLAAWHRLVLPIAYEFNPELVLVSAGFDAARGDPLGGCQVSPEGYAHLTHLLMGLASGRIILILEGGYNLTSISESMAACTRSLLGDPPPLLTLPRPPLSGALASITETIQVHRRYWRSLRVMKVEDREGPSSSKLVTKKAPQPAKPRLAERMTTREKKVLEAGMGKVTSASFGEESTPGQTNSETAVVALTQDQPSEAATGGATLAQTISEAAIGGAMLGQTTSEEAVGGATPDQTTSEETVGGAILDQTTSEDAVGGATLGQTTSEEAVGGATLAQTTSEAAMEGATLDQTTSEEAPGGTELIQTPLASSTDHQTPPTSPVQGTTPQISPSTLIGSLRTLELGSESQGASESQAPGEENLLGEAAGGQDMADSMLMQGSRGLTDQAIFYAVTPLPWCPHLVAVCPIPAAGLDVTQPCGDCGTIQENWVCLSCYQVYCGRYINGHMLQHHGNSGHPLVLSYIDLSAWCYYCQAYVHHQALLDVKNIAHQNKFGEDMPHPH
Assay: Simple Western immunoassay, HDAC6 levels in MM.1S cell lysates
Assay type: cell-based
Design: endogenous in cells; host or cells: MM.1S
Settings: MM.1S cells, 10 μM; for reduction of HDAC6 protein levels: 24 h
Procedure: Figure 3 Initial degradation screening of HDAC1 and 6 by DCAF11‐recruiting PROTACs by Simple Western™ immunoassay analysis of MM.1S cell lysates. MM.1S cells were treated with the indicated compound (10 μM) or vehicle (DMSO) for 24 h. […] Bottom: Representative images from a total of n=3 biological replicates, labeled with spacer type; w/o: without spacer.
2. Biological Experiments […]
The human multiple myeloma cell line MM.1S (CRL-2974) was obtained from American Type Culture Collection (ATCC, Manassas, VA, USA). The semi-adherent cells were cultivated in RPMI 1640 medium (Catalog#21875-034, Gibco, ThermoFisher Scientific Inc., Waltham, MA, USA) supplemented with 10% FBS (PAN Biotech GmbH; Aidenbach, Germany), 100 IU/mL penicil lin, 0.1 mg/mL streptomycin (PAN Biotech GmbH) and 1 mM sodium pyruvate (ThermoFisher Scientific Inc.). […]
(PAN Biotech GmbH). All cells were cultured at 37 °C in a 5% CO2 atmosphere. Incubation times, as part of assay protocols, were performed under these conditions as well. […]
2.2. Simple Western™ Immunoassay
For the cell lysates, MM.1S (0.5 × 10^6 cells/mL) or U-87MG (0.18 × 10^6 cells/mL) cells were seeded and incubated with the indicated concentration of compound or vehicle (DMSO) for the given time. […]
SDS, 0.5% deoxycholate; Catalog# FNN0011, Thermo Fisher Scientific Inc., Waltham, MA, USA) with addition of Halt Protease Inhibitor Cocktail (100×) (Catalog# 78429, Life Technologies GmbH, Carlsbad, CA, USA) and phenylmethanesulfonyl fluoride (Catalog# 10837091001, Sigma-Aldrich, St.
Louis, MO, USA) according to manufacturer´s instructions. Protein content was determined by Pierce™ BCA Protein Assay Kit (Catalog# 23225, Thermo Fisher Scientific Inc.) according to manufacturer´s guidelines. […]
Fluorescence Separation 8x25 Capillary Cartridges (Catalog# SM-FL004-1, Protein Simple, Bio-Techne, Minneapolis, MN, USA) were used for separation and the Anti-Mouse Detection Module (Catalog# DM-002, Protein Simple) was used for detection with addition of 20x Anti-Rabbit HRP […]
Conjugate (Catalog# 043-426, Protein Simple) according to manufacturer´s instructions. […] Evaluation and quantification was performed with the compass software (6.2.0, Protein Simple). […]
For the cell viability assay the automated pipetting robot system ASSIST PLUS (Model# 4505, Integra Biosciences, Bibertal, Germany) was used. […] The toxicity of compounds was determined after 72 h using the CellTiter-Glo 2.0 Cell Viability Assay (Promega, Madison, WI, USA, #G9242) according to the manufacturer´s protocol. Subsequently, the luminescence was measured using a Tecan Spark (Tecan Group AG, Maennedorf, Swiss) and the half maximal effective concentration (EC50) was determined by plotting dose response curves and nonlinear regression with GraphPad Prism (GraphPad Software, San […]

SMILES | effect on HDAC6 protein levels (14 h) | reduction of HDAC6 protein levels | time dependent degradation of HDAC6 (after 6 h)
O=CN(CCCCCCCCCCCC(=O)Nc1ccc(C(=O)NCCCCCCC(=O)NO)cc1)C(C(=O)NCc1ccccc1)c1ccc(Cl)c(Cl)c1 (stereo not shown) [Compound 1j-nc] | not able to affect the protein levels of HDAC1 and 6 |  | 
O=C(CCCCCCNC(=O)c1ccc(NC(=O)CCCCCCCCCCCN(C(=O)CCl)C(C(=O)NCc2ccccc2)c2ccc(Cl)c(Cl)c2)cc1)NO (stereo not shown) [Compound 1j] |  | significant reduction of HDAC6 protein levels | significant degradation
O=C(CCCCCCNC(=O)c1ccc(N(C(=O)CCl)C(C(=O)NCc2ccccc2)c2ccc(Cl)c(Cl)c2)cc1)NO (stereo not shown) [Compound 2] |  | significant reduction of HDAC6 protein levels | 
